ChEMBL document CHEMBL1201862, “PubChem BioAssay data set” (2004)
Blank lines part the entries; values can stand above or below the compound they belong to. Activity calls are given as the source filed them.

Columns and labels:
Mu-type opioid receptor = Mu-type opioid receptor (Homo sapiens, UniProt P35372); assay: SAR Analysis of Antagonists of the MOR Receptor using an Image-Based Assay - Set 3. [Related pubchem assays (depositor defined):AID1777, AID1785, AID1786, AID1966, AID2133, AID2136, AID2284, AID2285, AID2420]; assay type: functional
Chain of Mu-type opioid receptor (P35372 whole entry): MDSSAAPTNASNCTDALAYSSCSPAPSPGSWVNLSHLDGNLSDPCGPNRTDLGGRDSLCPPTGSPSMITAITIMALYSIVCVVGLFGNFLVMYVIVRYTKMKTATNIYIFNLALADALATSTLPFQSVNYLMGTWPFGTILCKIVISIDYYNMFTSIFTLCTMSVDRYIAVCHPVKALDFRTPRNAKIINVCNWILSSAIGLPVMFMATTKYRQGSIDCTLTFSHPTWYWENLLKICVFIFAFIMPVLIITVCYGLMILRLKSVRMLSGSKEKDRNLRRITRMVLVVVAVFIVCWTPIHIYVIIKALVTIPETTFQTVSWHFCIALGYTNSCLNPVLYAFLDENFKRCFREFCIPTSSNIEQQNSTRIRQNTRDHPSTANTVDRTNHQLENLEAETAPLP

[1] = molecular target: T1, Kappa-type opioid receptor (Homo sapiens, UniProt P41145); assay: SAR analysis of Antagonists of the Kappa Opioid Receptor (KOR) using an Image-Based Assay - Set 4. [Related pubchem assays (depositor defined):AID1777, AID1785]; assay type: functional
T1 sequence (P41145 whole entry): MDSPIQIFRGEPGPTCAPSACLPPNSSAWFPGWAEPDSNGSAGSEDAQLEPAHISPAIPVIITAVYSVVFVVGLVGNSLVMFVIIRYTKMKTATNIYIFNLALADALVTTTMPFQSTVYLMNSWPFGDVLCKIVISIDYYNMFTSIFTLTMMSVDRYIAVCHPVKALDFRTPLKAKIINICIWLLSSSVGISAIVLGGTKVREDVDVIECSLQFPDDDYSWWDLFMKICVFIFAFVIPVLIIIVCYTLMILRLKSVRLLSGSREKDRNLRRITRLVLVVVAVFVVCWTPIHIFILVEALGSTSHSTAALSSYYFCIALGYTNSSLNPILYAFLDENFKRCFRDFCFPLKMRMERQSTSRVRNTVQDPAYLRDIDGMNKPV

[2] = molecular target: T1, Kappa-type opioid receptor; assay: SAR analysis of small molecule antagonists of the kappa opioid receptor via a luminescent beta-arrestin assay - Set 3. [Related pubchem assays (depositor defined):AID1777, AID1778, AID1785, AID1786, AID1966, AID2133, AID2136, AID2285, AID2495]; assay type: functional
[3] = molecular target: Delta-type opioid receptor (Homo sapiens, UniProt P41143); assay: SAR Analysis of Antagonists of the DOR Receptor using an Image-Based Assay - Set 3. [Related pubchem assays (depositor defined):AID1777, AID1785]; assay type: functional;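 further: U2OS cells expressing DOR1 and beta-arrestin GFP stimulated with 100 nM SNC80; imaging of GFP-tagged beta-arrestin moving into spots after receptor activation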
Chain of Delta-type opioid receptor (P41143 whole entry): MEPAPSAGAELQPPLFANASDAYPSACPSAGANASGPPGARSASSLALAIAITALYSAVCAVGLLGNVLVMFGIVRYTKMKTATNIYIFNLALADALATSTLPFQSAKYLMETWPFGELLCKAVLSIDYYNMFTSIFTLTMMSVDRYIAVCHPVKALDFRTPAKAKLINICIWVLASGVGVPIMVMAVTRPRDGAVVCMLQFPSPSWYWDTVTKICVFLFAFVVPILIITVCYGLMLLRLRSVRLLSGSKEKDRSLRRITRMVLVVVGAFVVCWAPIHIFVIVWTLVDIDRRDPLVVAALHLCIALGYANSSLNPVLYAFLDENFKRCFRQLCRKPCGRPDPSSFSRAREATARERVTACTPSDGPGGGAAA

cells [4] = assay type: functional, cell-based
T-cell = assay: inhibitors of CD8+ T cell–vesicle binding, dose response, mouse 2C CD8+ T cells, flow cytometry (AID 485284); assay type: functional
Integrin alpha-L = Integrin alpha-L (Mus musculus, UniProt P24063); assay: modulators of CD8 T cell-vesicle binding, dose response, powder samples, mouse 2C CD8+ cells (AID 504565); assay type: functional
cells [5] = assay type: functional, cell-based; remark: listed apart in the source
[6] = inhibitors of intracellular T. cruzi replication, confirmation, NIH3T3 host cells, beta-gal luminescence (AID 2044); assay type: functional, cell-based;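 further: intracellular parasites grown in NIH/3T3 mouse fibroblasts as host cells; luminescent beta-galactosidase reporter signal from transgenic T. cruzi replicating inside host cells; inhibitors lower the luminescence signal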
HEK293 [7] = assay: NOD1 signaling inhibitors, primary screen, cell-based, luminescence, uHTS (AID 1578); assay type: functional; settings: Homo sapiens
Mucolipin-3 = Mucolipin-3 (Homo sapiens, UniProt Q8TDD5); assay: Fluorescence counterscreen assay for […] agonists: dose response cell-based high-throughput screening assay to identify agonists of the transient receptor potential channel ML3 (TRPML3). [Related pubchem assays: 1424, 1448 ]; assay type: functional
Chain of Mucolipin-3 (Q8TDD5 whole entry): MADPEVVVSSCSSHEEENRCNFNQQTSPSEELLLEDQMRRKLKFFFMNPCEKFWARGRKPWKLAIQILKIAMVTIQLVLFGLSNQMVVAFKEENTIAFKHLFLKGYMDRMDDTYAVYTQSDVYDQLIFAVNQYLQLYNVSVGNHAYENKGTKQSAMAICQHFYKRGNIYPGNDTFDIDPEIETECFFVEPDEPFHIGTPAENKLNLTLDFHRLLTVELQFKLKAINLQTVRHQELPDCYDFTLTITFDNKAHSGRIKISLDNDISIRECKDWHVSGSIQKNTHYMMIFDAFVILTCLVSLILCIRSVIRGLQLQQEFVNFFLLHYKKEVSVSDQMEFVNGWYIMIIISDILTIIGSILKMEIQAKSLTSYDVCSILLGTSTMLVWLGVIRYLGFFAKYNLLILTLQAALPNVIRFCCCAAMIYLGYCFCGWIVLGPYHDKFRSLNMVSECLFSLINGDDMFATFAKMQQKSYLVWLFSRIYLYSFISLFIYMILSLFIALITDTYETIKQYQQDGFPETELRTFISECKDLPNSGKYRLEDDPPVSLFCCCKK

HEK293 [8] = assay: NOD2 signaling inhibitors in MDP-stimulated cells, cell-based, uHTS, luminescence (AID 2001); assay type: functional; settings: Homo sapiens
[9] = molecular target: T2, Calpain-2 catalytic subunit (Sus scrofa, UniProt P43367); assay: pig calpain II inhibitor potency, dose response, biochemical, fluorogenic peptide substrate (AID 1420); assay type: functional
T2 sequence (P43367 whole entry): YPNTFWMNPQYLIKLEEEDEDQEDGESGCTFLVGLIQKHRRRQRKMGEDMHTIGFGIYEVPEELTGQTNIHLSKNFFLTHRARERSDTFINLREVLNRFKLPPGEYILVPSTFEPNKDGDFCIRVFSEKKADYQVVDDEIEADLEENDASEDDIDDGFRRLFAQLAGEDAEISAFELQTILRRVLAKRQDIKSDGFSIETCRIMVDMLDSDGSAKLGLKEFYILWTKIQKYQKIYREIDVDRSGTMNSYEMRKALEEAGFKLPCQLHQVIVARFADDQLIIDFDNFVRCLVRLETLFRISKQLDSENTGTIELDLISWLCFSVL

HEK293 [10] = assay: cells; assay type: functional, cell-based; settings: Homo sapiens
HEK293 [11] = assay: cells; assay type: functional, cell-based; settings: Homo sapiens; remark: listed apart in the source
Ion channel NompC = Ion channel NompC (Danio rerio, UniProt Q7T1G6); assay: Dose response cell-based high-throughput screening assay for agonists of the transient receptor potential channel N1 (TRPN1). [Related pubchem assays (depositor defined):AID1424, AID1448]; assay type: functional
Chain of Ion channel NompC (Q7T1G6 whole entry): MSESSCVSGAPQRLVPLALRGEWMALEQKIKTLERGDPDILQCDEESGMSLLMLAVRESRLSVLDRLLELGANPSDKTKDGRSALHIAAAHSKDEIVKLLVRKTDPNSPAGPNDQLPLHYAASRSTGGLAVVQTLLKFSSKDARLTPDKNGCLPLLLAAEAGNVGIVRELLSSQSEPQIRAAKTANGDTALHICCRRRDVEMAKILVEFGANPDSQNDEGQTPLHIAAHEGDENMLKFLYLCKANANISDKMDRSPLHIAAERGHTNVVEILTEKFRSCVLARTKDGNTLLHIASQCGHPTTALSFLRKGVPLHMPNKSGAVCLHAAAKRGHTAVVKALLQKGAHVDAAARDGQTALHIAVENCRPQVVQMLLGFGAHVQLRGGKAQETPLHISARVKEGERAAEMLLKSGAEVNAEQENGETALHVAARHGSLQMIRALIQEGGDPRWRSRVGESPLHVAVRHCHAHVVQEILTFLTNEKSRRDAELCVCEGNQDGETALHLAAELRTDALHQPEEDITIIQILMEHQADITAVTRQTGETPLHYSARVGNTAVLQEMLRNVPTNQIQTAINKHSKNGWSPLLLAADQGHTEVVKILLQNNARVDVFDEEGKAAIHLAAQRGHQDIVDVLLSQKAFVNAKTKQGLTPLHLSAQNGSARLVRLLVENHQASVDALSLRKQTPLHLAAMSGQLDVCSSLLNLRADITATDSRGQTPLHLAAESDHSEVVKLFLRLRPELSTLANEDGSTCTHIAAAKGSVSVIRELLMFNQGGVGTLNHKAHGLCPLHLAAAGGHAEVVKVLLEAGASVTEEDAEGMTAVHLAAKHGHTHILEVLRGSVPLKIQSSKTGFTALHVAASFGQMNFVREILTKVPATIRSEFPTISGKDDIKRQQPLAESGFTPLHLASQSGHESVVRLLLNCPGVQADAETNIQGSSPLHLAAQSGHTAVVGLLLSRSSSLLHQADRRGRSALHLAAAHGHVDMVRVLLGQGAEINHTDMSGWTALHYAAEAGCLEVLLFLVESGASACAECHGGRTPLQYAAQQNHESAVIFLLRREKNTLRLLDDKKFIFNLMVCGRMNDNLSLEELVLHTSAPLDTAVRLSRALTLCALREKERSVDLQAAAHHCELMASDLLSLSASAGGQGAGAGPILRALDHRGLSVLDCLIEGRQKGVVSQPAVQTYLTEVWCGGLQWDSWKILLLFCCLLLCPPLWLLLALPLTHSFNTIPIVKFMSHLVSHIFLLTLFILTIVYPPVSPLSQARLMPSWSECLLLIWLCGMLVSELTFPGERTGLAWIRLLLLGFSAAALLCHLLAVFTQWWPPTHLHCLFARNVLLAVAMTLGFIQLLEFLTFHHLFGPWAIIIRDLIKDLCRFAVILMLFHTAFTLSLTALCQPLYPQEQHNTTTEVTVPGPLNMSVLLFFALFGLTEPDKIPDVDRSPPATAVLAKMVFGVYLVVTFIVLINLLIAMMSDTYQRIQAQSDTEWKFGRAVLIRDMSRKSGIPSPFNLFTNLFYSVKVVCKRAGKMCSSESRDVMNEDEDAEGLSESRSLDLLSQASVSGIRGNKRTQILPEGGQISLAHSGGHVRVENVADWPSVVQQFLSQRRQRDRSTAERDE

[12] = cytotoxicity toward NIH3T3 fibroblasts, dose response, counter-screen, cell-based, ATP luminescence, mouse fibroblasts (AID 2010); assay type: functional;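 further: cells exposed to compound for about 90 hours before reading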
[13] = molecular target: T3, E3 ubiquitin-protein ligase XIAP (Homo sapiens, UniProt P98170); assay: Counter Screen using XIAP-Bir3 for Chemical Antagonists of Bir1/2 domains of IAP-family anti-apoptotic proteins. [Related pubchem assays (depositor defined):AID1018, AID1449, AID1514, AID1638, AID1749, AID1750, AID488957, AID488963]
T3 sequence (P98170 whole entry): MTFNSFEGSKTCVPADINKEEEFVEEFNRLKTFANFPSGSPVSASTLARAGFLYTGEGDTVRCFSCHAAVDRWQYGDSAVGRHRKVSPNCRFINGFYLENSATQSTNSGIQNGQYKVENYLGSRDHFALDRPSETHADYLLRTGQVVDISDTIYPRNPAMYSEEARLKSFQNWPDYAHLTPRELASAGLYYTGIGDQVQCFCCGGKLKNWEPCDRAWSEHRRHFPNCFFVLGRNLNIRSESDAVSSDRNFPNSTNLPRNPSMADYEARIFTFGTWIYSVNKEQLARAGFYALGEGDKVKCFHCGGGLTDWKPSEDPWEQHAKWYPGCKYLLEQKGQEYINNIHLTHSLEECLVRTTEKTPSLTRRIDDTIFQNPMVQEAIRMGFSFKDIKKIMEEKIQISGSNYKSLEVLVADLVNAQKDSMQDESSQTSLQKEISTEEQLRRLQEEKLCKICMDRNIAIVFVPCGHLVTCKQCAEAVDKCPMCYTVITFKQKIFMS

[14] = molecular target: T3, E3 ubiquitin-protein ligase XIAP; assay: XIAP antagonists, biochemical, IAP family, fluorescence polarization (AID 1018); assay type: functional
Cytochrome P450 2C19 = Cytochrome P450 2C19 (Homo sapiens, UniProt P33261); assay: Cytochrome panel assay with activity outcomes. Panel member name: p450-cyp2c19 Compounds with AC50 equal or less than 10 uM are considered active; assay type: functional; settings: read-out: AC50
Chain of Cytochrome P450 2C19 (P33261 whole entry): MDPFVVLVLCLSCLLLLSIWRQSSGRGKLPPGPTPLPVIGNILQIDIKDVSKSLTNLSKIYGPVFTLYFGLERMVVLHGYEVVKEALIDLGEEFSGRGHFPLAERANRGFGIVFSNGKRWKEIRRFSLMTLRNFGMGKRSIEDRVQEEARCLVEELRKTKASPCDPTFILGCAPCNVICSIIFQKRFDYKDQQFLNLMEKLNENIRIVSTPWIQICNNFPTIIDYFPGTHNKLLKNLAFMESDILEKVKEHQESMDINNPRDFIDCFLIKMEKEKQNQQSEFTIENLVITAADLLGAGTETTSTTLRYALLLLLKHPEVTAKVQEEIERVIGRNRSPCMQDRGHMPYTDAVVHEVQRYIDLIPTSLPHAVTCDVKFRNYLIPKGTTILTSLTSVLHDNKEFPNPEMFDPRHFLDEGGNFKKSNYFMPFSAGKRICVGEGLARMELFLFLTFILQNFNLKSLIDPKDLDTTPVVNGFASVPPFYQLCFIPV

Coagulation factor XII = molecular target: T4, Coagulation factor XII (Homo sapiens, UniProt P00748); assay: FXIIa inhibitor potency, concentration-response, biochemical (AID 716); assay type: functional
T4 sequence (P00748 whole entry): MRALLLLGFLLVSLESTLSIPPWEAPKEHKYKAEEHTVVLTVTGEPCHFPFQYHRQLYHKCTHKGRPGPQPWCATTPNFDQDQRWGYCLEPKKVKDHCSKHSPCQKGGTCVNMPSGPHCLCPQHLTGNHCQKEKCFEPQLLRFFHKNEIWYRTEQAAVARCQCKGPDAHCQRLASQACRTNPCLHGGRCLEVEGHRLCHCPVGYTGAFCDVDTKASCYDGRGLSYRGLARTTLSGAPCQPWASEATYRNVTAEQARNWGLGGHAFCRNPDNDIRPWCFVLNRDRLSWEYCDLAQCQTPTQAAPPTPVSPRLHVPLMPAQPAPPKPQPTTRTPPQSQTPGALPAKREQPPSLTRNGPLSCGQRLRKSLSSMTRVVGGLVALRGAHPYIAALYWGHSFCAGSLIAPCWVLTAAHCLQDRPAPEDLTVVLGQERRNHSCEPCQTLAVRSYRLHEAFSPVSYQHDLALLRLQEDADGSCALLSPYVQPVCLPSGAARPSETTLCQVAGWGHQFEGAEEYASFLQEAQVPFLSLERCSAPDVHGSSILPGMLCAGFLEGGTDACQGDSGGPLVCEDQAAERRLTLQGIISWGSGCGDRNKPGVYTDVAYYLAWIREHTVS

[15] = molecular target: Dual specificity protein phosphatase 3 (Homo sapiens, UniProt P51452); assay: SAR VHR1 Fluorescent Assay for In Vitro dose response studies Set 2. [Related pubchem assays (depositor defined):AID1654, AID1661, AID1878]; assay type: functional
Chain of Dual specificity protein phosphatase 3 (P51452 whole entry): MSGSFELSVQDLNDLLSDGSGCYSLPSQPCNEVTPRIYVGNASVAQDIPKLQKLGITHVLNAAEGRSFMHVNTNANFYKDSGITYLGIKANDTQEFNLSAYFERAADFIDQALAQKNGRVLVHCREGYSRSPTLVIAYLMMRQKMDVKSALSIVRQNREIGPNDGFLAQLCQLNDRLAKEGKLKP

[16] = molecular target: T5, Tyrosine-protein phosphatase non-receptor type 7 (Homo sapiens, UniProt P35236); assay: SAR analysis of chemical inhibitors of HePTP using a Fluorescent assay - Set 2. [Related pubchem assays (depositor defined):AID1059, AID1077, AID1661, AID2085, AID521]; assay type: functional
T5 sequence (P35236 whole entry): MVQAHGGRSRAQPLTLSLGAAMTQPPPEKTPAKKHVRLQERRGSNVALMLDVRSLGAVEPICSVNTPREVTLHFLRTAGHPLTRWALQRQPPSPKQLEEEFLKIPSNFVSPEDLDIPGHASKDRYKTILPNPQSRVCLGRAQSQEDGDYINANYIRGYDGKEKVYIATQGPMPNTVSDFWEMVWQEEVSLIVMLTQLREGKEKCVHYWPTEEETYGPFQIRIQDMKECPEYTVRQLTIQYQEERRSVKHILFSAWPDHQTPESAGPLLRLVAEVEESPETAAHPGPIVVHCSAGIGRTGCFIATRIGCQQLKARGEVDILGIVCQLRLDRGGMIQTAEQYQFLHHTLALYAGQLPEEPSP

- IC50 (Mu-type opioid receptor): 10.8 µM (inactive)
- IC50 [1]: 0.49 µM (active)
- IC50 [2]: 2.65 µM (active)
- IC50 [3]: > 32 µM (inactive)
SMILES: COc1ccc(N2CCN(CCCNC(=O)Cn3c(=O)c4cccn4c4cccnc43)CC2)c(OC)c1

SMILES: CCOCC(=O)Nc1ccc(S(=O)(=O)N2CCC(c3nc4ccccc4[nH]3)CC2)cc1
- EC50 (cells [4]): > 350 µM (not active)
- EC50 (T-cell): 1.37 µM (active)
- EC50 (Integrin alpha-L): 0.246 µM (active)
- EC50 (cells [5]): > 350 µM (not active)

SMILES: O=C(Cc1ccc(Cl)cc1)Nc1ncc([N+](=O)[O-])s1
- EC50 [6]: 0.589 µM (active)
- EC50 (HEK293 [7]): 4.23 µM (active)
- EC50 (Mucolipin-3): > 29.9 µM (not active)
- IC50 (HEK293 [8]): 10.9 µM (inactive)
- IC50 [9]: < 0.4 µM (not active)
- IC50 (HEK293 [10]): 9.12 µM (active)
- IC50 (HEK293 [11]): > 20 µM (inactive)
- EC50 (Ion channel NompC): > 29.9 µM (inactive)
- EC50 [12]: > 60 µM (inconclusive)

- IC50 [13]: > 100 µM (inactive)
- IC50 [14]: > 100 µM (not active)
SMILES: COc1cc(C(=O)O)cc(NC(=O)c2cccs2)c1OC

- AC50 (Cytochrome P450 2C19): 39.8 µM (inconclusive)
- IC50 (Coagulation factor XII): > 50 µM (inactive)
SMILES: CCOC(=O)N1CCN(C(=O)c2ccc(Cl)c(S(=O)(=O)N3CCOCC3)c2)CC1

SMILES: Fc1ccc(CNC(=S)c2ccc(Br)cc2)cc1C(F)(F)F
- IC50 [15]: 19.3 µM (active)
- IC50 [16]: 23.4 µM (active)
